# Assay results published in US20220211680A1, “COMPOUNDS AND COMPOSITIONS FOR TARGETING MACROPHAGES AND OTHER MANNOSE-BINDING C-TYPE LECTIN RECEPTOR HIGH EXPRESSING CELLS AND METHODS OF TREATING AND DIAGNOSIS USING SAME” (priority 2014, published 2022).
# Legend:
# [1] = test system: CD206 expressing macrophages; assay: Apoptosis induction (Annexin-V) in MOs and KS tumor tissue; type: cell-based
# Protocol: (§1) CD206 targeting assays were conducted using both in vitro monocyte-derived CD206+ macrophages (MOs) and ex vivo fresh Kaposi Sarcoma (KS) tumor tissue (provided by the AIDS and Cancer Specimen Resource [ACSR]). Tilmanocept-Cy3 with/without a chemo-therapeutic agent (CTA) attached (tilmanocept-Cy3-CTA or tilmanocept-Cy3) interactions with cellular and tumor targets were tracked by flow cytometry and immuno-histochemistry to evaluate Cy3-tilmanocept uptake and targeting capability for delivery of drug into KS tumor cells and TAMs.
# [2] = test system: luciferase-expressing M tuberculosis H37Rv strain (M.tb-Lux); assay: Anti-bacterial activity against M.tb in human macrophages (luminescence); type: cell-based
# [3] = test system: fresh Kaposi Sarcoma (KS) tumor tissue
# Protocol: as §1
# DC-SIGN (CD209) = DC-SIGN (CD209) (Homo sapiens, UniProt Q9NNX6); conditions: AF488-labeled tilmanocept, anti-DC-SIGN Ab staining
# DC-SIGN (CD209), sequence (Q9NNX6 whole entry): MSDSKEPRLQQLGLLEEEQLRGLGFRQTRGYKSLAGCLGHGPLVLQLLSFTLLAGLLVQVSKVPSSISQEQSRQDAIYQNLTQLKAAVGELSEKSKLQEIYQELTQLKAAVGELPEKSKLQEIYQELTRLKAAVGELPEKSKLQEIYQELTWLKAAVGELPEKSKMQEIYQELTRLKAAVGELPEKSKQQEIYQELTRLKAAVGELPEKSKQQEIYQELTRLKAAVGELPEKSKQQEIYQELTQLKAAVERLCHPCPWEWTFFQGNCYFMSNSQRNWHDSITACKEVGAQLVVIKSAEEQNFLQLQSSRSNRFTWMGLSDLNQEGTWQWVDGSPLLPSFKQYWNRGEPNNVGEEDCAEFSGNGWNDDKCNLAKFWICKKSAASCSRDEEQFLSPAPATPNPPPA
# Protocol: The tissue sections were first deparaffinized with xylene, followed by rehydration with graded alcohols (100%, 95%). A heat-induced epitope retrieval procedure was carried out by heating the tissue slides in citrate buffer (pH 6.0) at 95° C. for 10 min (31). Each tissue section was rehydrated with PBS buffer, blocked (5% non-fat dry milk in PBS+0.01% sodium azide) for 3 h at room temperature, and then incubated with specific primary Abs using manufacturer-recommended dilutions in a humidified chamber at 4° C. overnight. After extensive washing with PBS, the sections were counter-stained with AF488-conjugated anti-mouse and AF549-conjugated anti-rabbit secondary Abs (double staining) for 1 h at room temperature. The sections were washed again extensively and stained with the nuclear DNA stain DAPI for 10 min at room temperature. After washing and drying at room temperature, the slides were examined by a Flow View 1000 Laser Scanning Confocal microscope (Olympus). The MFI of a randomly selected group of confocal images was quantified using a pixel intensity measurement (NIH Image J program).
# FFPE lymph node tissue sections were subjected to the antigen retrieval procedure (see immunohistochemistry method above) followed by incubation with AF488-labeled tilmanocept and staining with anti-DC-SIGN Ab.
compound,measurement,setting,value
"COc1cccc2c1C(=O)c1c(O)c3c(c(O)c1C2=O)C[C@@](O)(C(=O)CO)C[C@@H]3O[C@H]1C[C@H](N)[C@H](O)[C@H](C)O1 [Docorubicin, doxorubicin]","toxicity to CD206 expressing macrophages (Annexin levels, FIG. 17)",[1],no toxicity
same,apoptosis induction on MOs and in tumor tissue,"[1]; Annexin-V, overnight",less effect
"NNC(=O)c1ccncc1 [INH, isoniazid]",lowest concentration at which activity against M.tb is maintained,[2],0.0312 µM
"dextran 3-[(2-aminoethyl)thio]propyl 17-carboxy-10,13,16-tris(carboxymethyl)-8-oxo-4-thia-7,10,13,16-tetraazaheptadec-1-yl 3-[[2-[[1-imino-2-(D-mannopyranosylthio)ethyl]amino]ethyl]thio]propyl ether complexes [Tilmanocept]",uptake in KS biopsy tissue culture,[3],uptake co-localized with CD206+ macrophages
same,binding to cells in lymph node tissue sections,DC-SIGN (CD209),bind in clusters to a population of DC-SIGN-positive cells
